Measurements: patent US20190015505A1, “Method of Mediating Cardiovascular Hypertrophy and Perivascular Fibrosis Induced by Angiotensin II” (UNIVERSITY OF MACAU, priority 2017, published 2019)

Columns and labels:
[1] = system: VSMCs stimulated with AngII; test: Pro-fibrotic response: extracellular collagen content (Sirius Red kit) in VSMCs stimulated with AngII; assay type: cell-based; conditions: rat VSMCs, 100 nM AngII 48 hours; JG26 1 ̂mol/L, erlotinib 1 ̂mol/L, PBA 10 mmol/L pretreated 30 min; adenovirus 100 m.o.i.
Method: (§1) VSMCs were prepared from thoracic aortas of male Sprague-Dawley rats by the explant method as described previously^21. VSMCs were subcultured in DMEM containing 10% fetal bovine serum, penicillin and streptomycin. Cells from passage 3 to 10 at 80˜90% confluence were made quiescent by incubation with serum-free medium for 2-3 days.
To evaluate pro-fibrotic response, serum-starved VSMCs were stimulated with 100 nM AngII for 48 hours and extracellular cellular collagen content was quantified by Sirius Red collagen quantification kit (Chondrex) according to the manufacture's protocol. Recombinant adenoviral vector encoding rat ADAM17 siRNA was created and specificity and efficiency has been reported^11. VSMCs were infected with 100 m.o.i. adenovirus prior to the AngII stimulation as reported previously^11. ADAM17 selective inhibitor compound #21 (JG26)^8 was generated as reported. VSMCs were pretreated
with 1 ̂mol/L JG26 or vehicle (0.1% DMSO in final) for 30 min prior to the AngII stimulation. 4-phenylbutyrate (PBA) was obtained from Scandinavian Formulas and solubilized in DMEM. VSMCs were pretreated with 10 mmol/L PBA for 30 min.
Erlotinib (OSI Pharmaceuticals) was obtained from Genentech. VSMCs were pretreated with 1 ̂mol/L erlotinib for 30 min.
To test for the role of ADAM17 in AngII-induced vascular fibrosis, extracellular collagen content was evaluated in VSMCs stimulated with AngII. Adenovirus encoding ADAM17 siRNA^11 attenuated the AngII-induced enhancement in collagen content (FIG. 4A and 4B). Treatment of VSMCs with ADAM17 antibody A9B8, a highly-selective ADAM17 inhibitor JG26/compound 21^22, an EGFR kinase inhibitor erlotinib or a chemical ER chaperone PBA also attenuated AngII-induced enhancement in collagen content (FIG. 4C). As shown with the ADAM17 siRNA^11, A9B8 as well as JG26 inhibited AngII-induced EGFR transactivation assessed with an auto-phosphorylation site antibody (FIG. 4D).

EGFR = test: AngII-induced EGFR transactivation in VSMCs, immunoblotting with auto-phosphorylation site antibody; assay type: cell-based; conditions: rat VSMCs, 100 nM AngII, auto-phosphorylation site antibody (Tyr1068)
Method: as §1
Immunoblotting (IB) was performed as previously described^21. Quiescent VSMCs grown on 6-well plates were stimulated with 100 nM AngII (Sigma) for specified durations. The reaction was terminated by the replacement of medium with 100 ̂L of 1xSDS lysis buffer. 40 ̂L of the cell lysates were subjected to SDS-PAGE gel electrophoresis and electrophoretically transferred to a nitrocellulose membrane. The membranes were then exposed to primary antibodies overnight at 4° C. After incubation with the peroxidase linked secondary antibody for 1 h at room temperature, immunoreactive proteins were visualized using a chemiluminescence reaction kit. […]
To test for the role of ADAM17 in AngII-induced vascular fibrosis, extracellular collagen content was evaluated in VSMCs stimulated with AngII. […] As shown with the ADAM17 siRNA^11, A9B8 as well as JG26 inhibited AngII-induced EGFR transactivation assessed with an auto-phosphorylation site antibody (FIG. 4D).

Compound	AngII-induced enhancement in collagen content [1]	AngII-induced EGFR transactivation (EGFR)
4-phenylbutyrate [PBA]	attenuated	
C#Cc1cccc(Nc2ncnc3cc(OCCOC)c(OCCOC)cc23)c1 [erlotinib, Erlotinib]	attenuated	
NC(=O)NCCC[C@@H](NS(=O)(=O)c1ccc(OCc2cc(Br)cc(Br)c2)cc1)C(=O)NO [JG26, reference compound]	attenuated	inhibited
